Reference: patent publication US3995061A, “Pharmaceutical composition and method of using the same” (Chugai Seiyaku Kabushiki Kaisha, priority 1974, dated 1976)

Tests used:
blood platelet = test: Aggregation inhibition activity of blood platelet (ADP-induced, platelet rich plasma of orally dosed rats); type: in vivo, Wister-Imamich strain male rats; settings: rat, 20 mg/kg oral, 6 hours; adenosine-5'-diphosphate 10^-5 M in platelet rich plasma
Procedure: In this Example Wister-Imamich strain male rats weighing 230 ± 30 g which had been bred with the use of a commercial chow, CLEA CE-2 were used.
The rats were divided into groups of five members each, and orally administered with a different ascochlorin derivative as a suspension in 2% gum arabic aqueous solution in a dose of 20 mg/kg.body weight. Six hours after the administration, the blood of each rat was sampled from the heart and after the addition of citric acid, the blood sample was centrifuged at 1,500 r.p.m. for 10 minutes to obtain platelet rich plasma. The anti-aggregation effect when the concentration of adenosine-5'-diphosphatein the platelet rich plasma is ultimately 10^^-5 M is shown in Table II.
As positive controls, ascochlorin, ethyl-α-(p-chlorophenoxy) isobutylate and acetyl salicyclic acid were used. The aggregation inhibition ratio was evaluated in percent by comparing the increase of transmission rate caused by the addition of adenosin-5'-diphosphate to platelet rich plasma of the control group (no medication) with that caused on the groups administered with an ascochlorin derivative which is calculated for 100.

Acute toxicity, rat = settings: in vivo, male
Excerpt: (§1) Acute toxicity of the ascochlorin derivatives was observed by the use of Wister-Imamichi strain male rats weighing 230 ± 30 g and ddY strain male and female mice (5 weeks old) weighing 20 ±3 g which were divided into groups of 10 members each. Japanese native male rabbits weighing 2 kg ± 300 g which were divided into groups of five members each were also used. The test animals were orally or intraperitoneally administered with a different ascochlorin derivative as a suspension in 5% gum arabic aqueous solution, and the toxicity was compared with that of control in which ascochlorin was used.

Acute toxicity, mouse = settings: in vivo
Excerpt: as §1

Cholesterol in serum = test: Serum cholesterol lowering activity in rats on high-fat feed, single oral dose; type: in vivo, Wister-Imamich strain male rats; settings: rat, 75 mg/kg oral, 6 hours after administration
Excerpt: The cholesterol lowering activity of the ascochlorin derivatives of this invention was observed by the use of Wister-Imamich strain male rats weighing 230 ± 30 g which had been bred with the use of high-fat feed comprising 1000 g of powdery chow CLEA CE-2 (sold by NIHON CLEA KABUSHIKI KAISHA) admixed with 10 g of cholesterol, 95 g of hydrogenated coconut oil, 2 g of cholic acid, 150 g of milk casein and 671 g of sucrose.
The rats were divided into groups of five members each, and orally administered with a different ascochlorin derivative as a suspension in gum arabic aqueous solution in a dose of 75 mg/kg.body weight. The rats were kept from eating food, and 6 hours after the administration, the blood of each rat was sampled from its heart. The total amount of cholesterol in serum was determined by a modified Zurkowski method (Clinical Chemistry, 10, 451, 1964) with the use of a colorimeter for blood analysis (sold by KYOTO DAIICHI KAGAKU).

arteriosclerosis = test: Treatment of arteriosclerosis in human beings, oral administration; type: in vivo; settings: 50 mg dose after every meal, study not completed
Excerpt: In order to treat arteriosclerosis by the use of the composition prepared according to the present invention, mammals and poultry are orally administered with the pharmaceutical composition prepared according to the present invention once or more a day. Especially, for human beings, it is preferable to administer the composition three times per day, after every meal. For animals other than human beings, the composition may be administered alone or by mixing it with feed. As stated above, the dose of the composition depends on the kind of animals to which it is to be administered and on the form of the composition. However, the dose ranges generally 0.05-500, preferably 0.5-50 mg/kg.body weight per day based on the ascochlorin derivative.

Lipid in liver and aorta = test: Hypolipidemic activity: change of lipid level in organs and aorta abdominalis, 30 days, high-fat feed; type: in vivo, Wister strain rats; design: Cholesterol in Tunica intima of aorta abdominalis: unit not given here; settings: rat; for Cholesterol in Liver / Cholesterol in Tunica intima of aorta abdominalis / Phospholipid in Liver / Triglyceride in Liver: average ± standard error
Procedure: Wister strain rats weighing 150 ± 20 g were divided into groups of 10 members each and bred with high-fat feed, the same as that used in Example 1. The rats were orally administered ascochlorin, 4-O-methylascochlorin or ethyl-α-(p-chlorophenoxy) isobutylate in a predetermined dose every morning for 30 days. Six hours after the last administration, liver and aorta of each rat were taken out and lipid level in the organs of each of the rats were determined. Lipid present in the liver and aorta was extracted with methanol-chloroform (1:1) by allowing it to stand overnight and the extract was assayed as to lipid level.

Acute toxicity, rabbit = test: Acute toxicity, rabbit; design: species or system Japanese native male rabbits; settings: in vivo, male, oral
Excerpt: as §1

Serum Lipid = test: Hypolipidemic activity: change in level of serum lipid, 30 days, high-fat feed; type: in vivo, Wister strain rats; settings: rat; for Serum Cholesterol / Serum Free fatty acid / Serum Phospholipid / Serum Triglyceride / Serum β-Lipoprotein: average ± standard error

Compound: CCOc1c(Cl)c(C)c(C=O)c(O)c1C/C=C(C)/C=C/C1(C)C(C)CCC(=O)C1C (stereo not shown) [4-O-ethylascochlorin]
- Aggregation Inhibition Ratio (blood platelet): 55.3%
- LD50 (Acute toxicity, rat; ip): 5100 mg/kg
- LD50 (Acute toxicity, mouse; ip, male): 5600 mg/kg
- Cholesterol in serum (Cholesterol in serum): 82.2 mg/dL

Compound: CC(/C=C/C1(C)C(C)CCC(=O)C1C)=C\Cc1c(O)c(C=O)c(C)c(Cl)c1OCC(C)C (stereo not shown) [4-O-isobutylascochlorin]
- Aggregation Inhibition Ratio (blood platelet): 48.8%
- Cholesterol in serum (Cholesterol in serum): 88.5 mg/dL

Compound: CC(/C=C/C1(C)C(C)CCC(=O)C1C)=C\Cc1c(O)c(C=O)c(C)c(Cl)c1OC(C)C (stereo not shown) [4-O-isopropylascochlorin]
- Aggregation Inhibition Ratio (blood platelet): 57.2%
- Cholesterol in serum (Cholesterol in serum): 85.6 mg/dL

Compound: COc1c(Cl)c(C)c(C=O)c(O)c1C/C=C(C)/C=C/C1(C)C(C)CCC(=O)C1C (stereo not shown) [4-O-methylascochlorin]
- effect in human beings (arteriosclerosis): satisfactory effect
- Cholesterol in Liver, increasing or reducing ratio based on the control (Lipid in liver and aorta; 2.25 mg/kg oral): +12.9
- Cholesterol in Tunica intima of aorta abdominalis, increasing or reducing ratio based on the control (Lipid in liver and aorta; 2.25 mg/kg oral): -8.1
- Phospholipid in Liver, increasing or reducing ratio based on the control (Lipid in liver and aorta; 2.25 mg/kg oral): +2.6
- Triglyceride in Liver, increasing or reducing ratio based on the control (Lipid in liver and aorta; 2.25 mg/kg oral): -23.6
- Cholesterol in Liver (Lipid in liver and aorta; 2.25 mg/kg oral): 38.4 ± 6.4 mg/g
- Cholesterol in Tunica intima of aorta abdominalis (Lipid in liver and aorta; 2.25 mg/kg oral): 18.2±1.4
- Phospholipid in Liver (Lipid in liver and aorta; 2.25 mg/kg oral): 72.0 ± 5.3 mg/g
- Triglyceride in Liver (Lipid in liver and aorta; 2.25 mg/kg oral): 16.7 ± 1.3 mg/g
- amount of lipids in liver and cholesterol in aorta (Lipid in liver and aorta; 9 mg/kg or more, oral): remarkably reduced
- Cholesterol in Liver, increasing or reducing ratio based on the control (Lipid in liver and aorta; 9.0 mg/kg oral): -15.0
- Cholesterol in Tunica intima of aorta abdominalis, increasing or reducing ratio based on the control (Lipid in liver and aorta; 9.0 mg/kg oral): -29.3
- Phospholipid in Liver, increasing or reducing ratio based on the control (Lipid in liver and aorta; 9.0 mg/kg oral): -1.6
- Triglyceride in Liver, increasing or reducing ratio based on the control (Lipid in liver and aorta; 9.0 mg/kg oral): -21.1
- Cholesterol in Liver (Lipid in liver and aorta; 9.0 mg/kg oral): 28.9 ± 3.6 mg/g
- Cholesterol in Tunica intima of aorta abdominalis (Lipid in liver and aorta; 9.0 mg/kg oral): 14.0±0.3
- Phospholipid in Liver (Lipid in liver and aorta; 9.0 mg/kg oral): 69.1 ± 9.9 mg/g
- Triglyceride in Liver (Lipid in liver and aorta; 9.0 mg/kg oral): 17.2 ± 2.8 mg/g
- Cholesterol in Liver, increasing or reducing ratio based on the control (Lipid in liver and aorta; 22.5 mg/kg oral): -21.8
- Cholesterol in Tunica intima of aorta abdominalis, increasing or reducing ratio based on the control (Lipid in liver and aorta; 22.5 mg/kg oral): -32.8
- Phospholipid in Liver, increasing or reducing ratio based on the control (Lipid in liver and aorta; 22.5 mg/kg oral): -12.0
- Triglyceride in Liver, increasing or reducing ratio based on the control (Lipid in liver and aorta; 22.5 mg/kg oral): -22.1
- Cholesterol in Liver (Lipid in liver and aorta; 22.5 mg/kg oral): 26.6 ± 2.2 mg/g
- Cholesterol in Tunica intima of aorta abdominalis (Lipid in liver and aorta; 22.5 mg/kg oral): 13.3±0.4
- Phospholipid in Liver (Lipid in liver and aorta; 22.5 mg/kg oral): 61.8 ± 4.3 mg/g
- Triglyceride in Liver (Lipid in liver and aorta; 22.5 mg/kg oral): 17.0 ± 0.7 mg/g
- LD50 (Acute toxicity, rabbit): > 2000 mg/kg
- Aggregation Inhibition Ratio (blood platelet): 70.5%
- LD50 (Acute toxicity, rat; ip): 3100 mg/kg
- LD50 (Acute toxicity, rat; oral): > 10000 mg/kg
- Serum Cholesterol, increasing or reducing ratio based on the control (Serum Lipid; 2.25 mg/kg oral): -4.2
- Serum Free fatty acid, increasing or reducing ratio based on the control (Serum Lipid; 2.25 mg/kg oral): -2.4
- Serum Phospholipid, increasing or reducing ratio based on the control (Serum Lipid; 2.25 mg/kg oral): -12.2
- Serum Triglyceride, increasing or reducing ratio based on the control (Serum Lipid; 2.25 mg/kg oral): -6.8
- Serum β-Lipoprotein, increasing or reducing ratio based on the control (Serum Lipid; 2.25 mg/kg oral): +7.3
- Serum Cholesterol (Serum Lipid; 2.25 mg/kg oral): 102.4 ± 13.8 mg/dL
- Serum Free fatty acid (Serum Lipid; 2.25 mg/kg oral): 49.1±8.2 μ eq./dl
- Serum Phospholipid (Serum Lipid; 2.25 mg/kg oral): 119.7 ± 12.5 mg/dL
- Serum Triglyceride (Serum Lipid; 2.25 mg/kg oral): 74.5 ± 9.8 mg/dL
- Serum β-Lipoprotein (Serum Lipid; 2.25 mg/kg oral): 819 ± 109 mg/dL
- levels of all types of lipids (Serum Lipid; 9 mg/kg or more, oral): extremely lowered
- Serum Cholesterol, increasing or reducing ratio based on the control (Serum Lipid; 9.0 mg/kg oral): -18.6
- Serum Free fatty acid, increasing or reducing ratio based on the control (Serum Lipid; 9.0 mg/kg oral): -10.4
- Serum Phospholipid, increasing or reducing ratio based on the control (Serum Lipid; 9.0 mg/kg oral): -13.2
- Serum Triglyceride, increasing or reducing ratio based on the control (Serum Lipid; 9.0 mg/kg oral): -19.0
- Serum β-Lipoprotein, increasing or reducing ratio based on the control (Serum Lipid; 9.0 mg/kg oral): -22.3
- Serum Cholesterol (Serum Lipid; 9.0 mg/kg oral): 87.0 ± 4.9 mg/dL
- Serum Free fatty acid (Serum Lipid; 9.0 mg/kg oral): 44.8±3.5 μ eq./dl
- Serum Phospholipid (Serum Lipid; 9.0 mg/kg oral): 118.4 ± 5.8 mg/dL
- Serum Triglyceride (Serum Lipid; 9.0 mg/kg oral): 64.8 ± 5.2 mg/dL
- Serum β-Lipoprotein (Serum Lipid; 9.0 mg/kg oral): 593 ± 85 mg/dL
- Serum Cholesterol, increasing or reducing ratio based on the control (Serum Lipid; 22.5 mg/kg oral): -16.9
- Serum Free fatty acid, increasing or reducing ratio based on the control (Serum Lipid; 22.5 mg/kg oral): -16.3
- Serum Phospholipid, increasing or reducing ratio based on the control (Serum Lipid; 22.5 mg/kg oral): -13.5
- Serum Triglyceride, increasing or reducing ratio based on the control (Serum Lipid; 22.5 mg/kg oral): -20.5
- Serum β-Lipoprotein, increasing or reducing ratio based on the control (Serum Lipid; 22.5 mg/kg oral): -22.8
- Serum Cholesterol (Serum Lipid; 22.5 mg/kg oral): 88.8 ± 9.1 mg/dL
- Serum Free fatty acid (Serum Lipid; 22.5 mg/kg oral): 42.1±2.7 μ eq./dl
- Serum Phospholipid (Serum Lipid; 22.5 mg/kg oral): 117.9 ± 6.5 mg/dL
- Serum Triglyceride (Serum Lipid; 22.5 mg/kg oral): 63.6 ± 4.6 mg/dL
- Serum β-Lipoprotein (Serum Lipid; 22.5 mg/kg oral): 589 ± 133 mg/dL
- LD50 (Acute toxicity, mouse; ip, female): 5500 mg/kg
- LD50 (Acute toxicity, mouse; ip, male): 5000 mg/kg
- LD50 (Acute toxicity, mouse; po, female): > 7300 mg/kg
- LD50 (Acute toxicity, mouse; po, male): > 7300 mg/kg
- Cholesterol in serum (Cholesterol in serum): 76.6 mg/dL

Compound: CCCCOc1c(Cl)c(C)c(C=O)c(O)c1C/C=C(C)/C=C/C1(C)C(C)CCC(=O)C1C (stereo not shown) [4-O-n-butylascochlorin]
- Aggregation Inhibition Ratio (blood platelet): 53.7%
- Cholesterol in serum (Cholesterol in serum): 86.9 mg/dL
